Measurements reported in patent US20240041908A1, “IMMUNOMODULATORY OLIGOSACCHARIDES FOR THE TREATMENT OF AUTISM SPECTRUM DISORDER” (Intrinsic Medicine, Inc., priority 2020, published 2024).
Like-named read-outs stand apart in the source and are kept apart here.

How the values were obtained:
TNFα and IL-8 = details: independent anti-inflammatory effects; cited from earlier work
[1] = tested on: child, diagnosed with ASD with frequent anxiety and episodes of self harm; assay: Case report: child diagnosed with ASD given oral 3′-sialyllactose daily; assay type: in vivo, human; details: 40-50 mg/kg per day orally once a day
Method: A child, diagnosed with ASD with frequent anxiety and episodes of self harm, was given 40-50 mg/kg per day 3′-sialyllactose (Glycom, food grade, GRAS) dosed orally once a day.

[2] = tested on: murine and human derived macrophages stimulated with LPS; details: cited from earlier work; for IL-1β, IL-2, IL-4, IL-6, IL-12, IFNγ or TNF-α: in vitro

CC1O[C@@H](OC2[C@H](O[C@H]3C(O)C(O)C(O)O[C@H]3CO)OC(CO)[C@H](O)[C@@H]2O)C(O)[C@@H](O)[C@@H]1O (some centres unmarked) [2′fucosyllactose, 2′-fucosyllactose]
TNFα and IL-8 (TNFα and IL-8): reduction

CC(=O)N[C@H]1C([C@H](O)[C@H](O)CO)O[C@@](O[C@@H]2C(O)[C@H](O[C@@H]3C(CO)O[C@@H](O)C(O)[C@H]3O)OC(CO)[C@@H]2O)(C(=O)O)C[C@H]1O (some centres unmarked) [3′-sialyllactose]
heart rate ([1]; measured by parent before and after treatment): reduction in heart rate
anxiety ([1]; noted by parent): significant decrease
self-harm episodes ([1]; noted by parent): significant decrease
PDL1, COX2 and select chemokines such as CCL2 (MCP1) and CCL5 [2]: reduce
IL-1β, IL-2, IL-4, IL-6, IL-12, IFNγ or TNF-α ([2]; listed as 3′-SL): more significant reductions
IL-1β, IL-2, IL-4, IL-6, IL-12, IFNγ or TNF-α ([2]; listed as 3′SL): reductions

CC(=O)N[C@H]1C([C@H](O)[C@H](O)CO)O[C@@](OCC2O[C@@H](O[C@@H]3C(CO)O[C@@H](O)C(O)[C@H]3O)C(O)[C@@H](O)[C@H]2O)(C(=O)O)C[C@H]1O (some centres unmarked) [6′SL, 6′-sialyllactose]
IL-1β, IL-2, IL-4, IL-6, IL-12, IFNγ or TNF-α [2]: reductions
